One experiment has as its system skinned trabeculae. The experiment is described as follows: Force-[Ca2+] relation in skinned trabeculae. Format: cell-based, rat. The following applies: after skinning; NCA. How it is done: FIG. 2. […] (A) Steady-state force-[Ca^2+]i relationship in intact trabeculae before and after NCA (20 μmol/L). n=5. See text for details. (B) Force-[Ca^2+] relation in skinned trabeculae before and after NCA (n=6). […] The muscles were treated with DTT (5 mM) for 10 min after 1st force-[Ca^2+] was obtained in the presence of NCA alone, and a second force-[Ca^2+] relation was obtained in the presence of NCA+DTT. n=3. (D) For comparison, steady-state force-[Ca^2+]i relationship in intact trabeculae before and after AS (500 μmol/L). n=5.
To further test this hypothesis, steady-state force-[Ca^2+]i relations were obtained by tetanizing the muscles in the presence of ryanodine.

In the next experiment the test system is rat cardiac muscle. The experiment is described as follows: Force and [Ca2+]i measurements in cardiac trabeculae. The format is cell-based. How it is done:
Force and [Ca^2+]i Measurements in Cardiac Trabeculae.
Rat hearts were exposed via midsternotomy after the animals were anesthetized with intraperitoneal injection of pentobarbital (100 mg/kg), and were then rapidly excised and aorta cannulated. The hearts were perfused retrogradely (˜15 ml/min) with high K^+ Krebs-Henseleit (H-K) solution equilibrated with 95% O2 and 5% CO2. Trabeculae were quickly dissected from the right ventricles of the hearts and mounted between a force transducer and a motor arm. The muscles were superfused with K-H solution at a rate of ˜10 ml/min and stimulated at 0.5 Hz. Force was measured using a force transducer system (SI, Germany) and expressed in mN/mm^2. Sarcomere length was measured by laser diffraction. Fura-2 potassium salt was microinjected iontophoretically into one cell and allowed to spread throughout the whole muscle (via gap junctions). The epifluorescence of fura-2 was measured by exciting at 380 and 340 nm. The fluorescent light was collected at 510 nm by a photomultiplier tube (R1527, Hamamatsu). [Ca^2+]i was given by (after subtraction of the autofluorescence): [Ca^2+]i=K′d(R-Rmin)/(Rmax-R), where R is the observed ratio of fluorescence (340/380), K′d is the apparent dissociation constant, Rmax is the ratio of 340 nm/380 nm at saturating [Ca^2+], and Rmin is the ratio of 340 nm/380 nm at zero [Ca^2+]. The values of K′d, Rmax, and Rmin were determined by in vivo calibrations. Tetanization of the trabecula was achieved by addition of ryanodine (1.0 μmol/L) and by increasing the stimulus rate to 10 Hz briefly (˜3 sec) to obtain steady-state force-[Ca^2+] relations. Different levels of tetanized force will be obtained by increasing [Ca^2+] in the perfusate (up to 20-25 mmol/L). The data will be fitted with the Hill equation: F=Fmax[Ca^2+]in/(K1/2n+[Ca^2+]in), where Fmax is the maximal force. K1/2 is [Ca^2+]i at half Fmax, and n is the Hill coefficient.
1-nitrosocyclohexylacetate (NCA) is a new and mechanistically unique HNO donor that has been recently synthesized.

The mark [1] stands for this setting: 20˜100 μmol/L, 0.5 mmol/L [Ca2+]o.
Where [2] appears, read: NCA 100 μmol/L, isolated cardiac muscle.
[3] abbreviates: in the presence of NCA, varied external Ca2+.

Structures are written as SMILES.

The molecule `CC(=O)OC1(N=O)CCCCC1` [NCA, 1-nitrosocyclohexylacetate] had a Hill in the experiment with skinned trabeculae of 2.39±1.02. Besides, in the experiment with rat cardiac muscle (setting [1]), the diastolic force result was “no changes” and the force development entry was “increases force development in a dose dependent manner”. Besides, in the experiment on rat cardiac muscle (setting [2]), the “Ca2+ transient” value was found to be 0.39 ± 0.08 µmol/L and the force turned out to be 32.3 ± 4.8 mN/mm². In the experiment on rat cardiac muscle (dose-response), the “diastolic Ca2+” value is on record as “increased only at high doses”. Moreover, in the experiment with rat cardiac muscle (setting [3]), the “amplitude of intracellular Ca2+ transients” value is on record as “not different from control” and the “systolic force at any given external Ca2+” value is listed as “remained significantly higher”. For the same molecule, the Force-frequency relationship result with rat cardiac muscle (without rising [Ca2+]i) was “enhanced”.

Source of the values: patent US20120231482A1, “METHOD, KIT OR DIAGNOSTIC FOR THE DETECTION OF REAGENTS WHICH INDUCE ALTERED CONTRACTILITY” (THE JOHNS HOPKINS UNIVERSITY, priority 2009, published 2012).
